Measurements: PMC10178506, “Chemical and Biological Evaluation of Novel 1H-Chromeno[3,2-c]pyridine Derivatives as MAO Inhibitors Endowed with Potential Anticancer Activity” (International Journal of Molecular Sciences, 2023)
Like-named read-outs stand apart in the source and are kept apart here.

Experiments:
[1] = biological target: T1, human recombinant MAO A (Homo sapiens, UniProt P21397); test: biochemical; assay type: biochemical; details: for inhibition at 10 µM: read-out: hMAO-A % inhibition at 10 μM
T1 construct: purchased Sigma Aldrich (Milan, Italy); host or cells: baculovirus-infected insect cells
T1 sequence (P21397 1-527): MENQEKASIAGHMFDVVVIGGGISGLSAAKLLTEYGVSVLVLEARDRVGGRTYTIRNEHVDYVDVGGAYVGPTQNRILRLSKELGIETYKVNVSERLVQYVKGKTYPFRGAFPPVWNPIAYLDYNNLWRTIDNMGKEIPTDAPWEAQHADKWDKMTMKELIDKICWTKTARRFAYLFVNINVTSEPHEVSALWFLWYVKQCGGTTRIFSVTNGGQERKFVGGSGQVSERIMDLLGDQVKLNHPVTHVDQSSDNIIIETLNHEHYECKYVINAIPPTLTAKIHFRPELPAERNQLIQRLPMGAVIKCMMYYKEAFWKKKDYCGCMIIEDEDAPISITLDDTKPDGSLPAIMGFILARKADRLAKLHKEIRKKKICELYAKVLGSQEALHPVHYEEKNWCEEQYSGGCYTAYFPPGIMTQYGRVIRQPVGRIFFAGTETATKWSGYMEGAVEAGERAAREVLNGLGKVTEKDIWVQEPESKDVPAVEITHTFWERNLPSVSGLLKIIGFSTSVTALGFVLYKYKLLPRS
Procedure: (§1) Human isoforms of MAOs (from baculovirus-infected insect cells) and ChEs (human recombinant AChE and BChE from human serum), purchased from Sigma Aldrich (Milan, Italy), were used for inhibition assays. Experiments were performed in 96-well plates (Greiner Bio-One, Kremsmünster, Austria) on the Infinite M1000 Pro plate reader (Tecan, Cernusco s.N., Italy), using already published protocols.
After the addition of human recombinant MAO A (250 U/mg) or MAO B (59 U/mg) and a further 30 min of incubation, NaOH was added, and the fluorescence read at 310/400 nm excitation/emission wavelength. […] IC50 is expressed as mean ± SD of three independent measurements, each one performed in duplicate. For the kinetic study on the inhibition mechanism of MAO B, three diverse scalar concentrations of the inhibitor and seven concentrations of kynuramine were used.
(§2) The IC50 values, Michaelis–Menten curve fitting and inhibition constant (Ki) were calculated by nonlinear regression, using Prism software.

[2] = biological target: T2, human recombinant MAO B (Homo sapiens, UniProt P27338); test: biochemical; assay type: biochemical; details: for inhibition at 10 µM: read-out: hMAO-B % inhibition at 10 μM
T2 construct: purchased Sigma Aldrich (Milan, Italy); host or cells: baculovirus-infected insect cells
T2 sequence (P27338 1-520): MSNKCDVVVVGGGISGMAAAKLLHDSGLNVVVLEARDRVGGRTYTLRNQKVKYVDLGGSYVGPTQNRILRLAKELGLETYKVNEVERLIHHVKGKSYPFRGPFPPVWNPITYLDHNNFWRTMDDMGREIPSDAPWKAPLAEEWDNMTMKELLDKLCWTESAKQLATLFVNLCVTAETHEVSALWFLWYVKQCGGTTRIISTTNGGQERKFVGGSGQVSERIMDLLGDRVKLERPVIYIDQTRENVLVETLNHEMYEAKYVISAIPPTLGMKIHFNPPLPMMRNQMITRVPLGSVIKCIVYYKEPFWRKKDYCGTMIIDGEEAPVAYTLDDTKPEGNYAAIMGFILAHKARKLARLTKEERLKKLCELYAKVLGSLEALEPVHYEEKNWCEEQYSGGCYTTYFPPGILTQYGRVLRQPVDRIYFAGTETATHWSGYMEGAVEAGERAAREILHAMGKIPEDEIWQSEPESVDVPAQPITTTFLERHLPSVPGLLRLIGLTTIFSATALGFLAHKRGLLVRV

[3] = biological target: T3, BChE from human serum (Homo sapiens, UniProt P06276); test: biochemical; details: for hBChE % inhibition at 10 μM / inhibition at 10 µM: 10 μM concentration, mean ± S.D. (n = 3), n.i. = no inhibition at 10 μM; for inhibition at 10 µM: read-out: hBChE % inhibition at 10 μM
T3 construct: ChEs (human recombinant AChE and BChE from human serum), purchased from Sigma Aldrich (Milan, Italy); purchased Sigma Aldrich (Milan, Italy); host or cells: human serum (natural source)
T3 sequence (P06276 29-602): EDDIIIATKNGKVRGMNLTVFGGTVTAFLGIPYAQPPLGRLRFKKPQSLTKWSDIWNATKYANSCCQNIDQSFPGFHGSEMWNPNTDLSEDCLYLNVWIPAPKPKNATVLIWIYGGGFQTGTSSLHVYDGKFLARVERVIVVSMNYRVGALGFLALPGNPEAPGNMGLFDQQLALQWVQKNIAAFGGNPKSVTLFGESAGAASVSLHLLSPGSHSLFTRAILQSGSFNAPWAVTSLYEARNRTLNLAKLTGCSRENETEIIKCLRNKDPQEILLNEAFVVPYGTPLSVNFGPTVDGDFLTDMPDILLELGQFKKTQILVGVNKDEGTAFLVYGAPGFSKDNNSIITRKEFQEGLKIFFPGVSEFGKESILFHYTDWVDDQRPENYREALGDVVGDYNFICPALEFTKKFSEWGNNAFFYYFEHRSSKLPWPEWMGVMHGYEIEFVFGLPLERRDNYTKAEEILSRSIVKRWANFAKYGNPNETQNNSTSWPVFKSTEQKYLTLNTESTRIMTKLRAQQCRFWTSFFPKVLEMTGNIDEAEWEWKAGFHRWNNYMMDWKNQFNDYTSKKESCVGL
Procedure: as §1
(§3) The inhibition of human recombinant AChE or BChE from human serum was determined by applying Ellman’s spectrophotometric method as described in previously reported protocols. The AChE activity was determined in an assay solution containing AChE (0.09 U/mL), 5,5′-dithiobis(2-nitrobenzoic acid) (i.e., the Ellman’s reagent, 0.33 mM), the test compound (10 μM concentration, or seven scalar concentrations for compounds achieving > 60% enzyme inhibition at 10 μM), in 0.1 M PBS pH 8.0. […] The BChE inhibitory activity was similarly determined by using BChE (0.09 U/mL) and butyrylthiocholine iodide (5 μM) as the substrate.
as §2

[4] = biological target: T4, human recombinant AChE (Homo sapiens, UniProt P22303); test: biochemical; details: for inhibition at 10 µM: read-out: hAChE % inhibition at 10 μM
T4 construct: purchased Sigma Aldrich (Milan, Italy)
T4 sequence (P22303 32-614): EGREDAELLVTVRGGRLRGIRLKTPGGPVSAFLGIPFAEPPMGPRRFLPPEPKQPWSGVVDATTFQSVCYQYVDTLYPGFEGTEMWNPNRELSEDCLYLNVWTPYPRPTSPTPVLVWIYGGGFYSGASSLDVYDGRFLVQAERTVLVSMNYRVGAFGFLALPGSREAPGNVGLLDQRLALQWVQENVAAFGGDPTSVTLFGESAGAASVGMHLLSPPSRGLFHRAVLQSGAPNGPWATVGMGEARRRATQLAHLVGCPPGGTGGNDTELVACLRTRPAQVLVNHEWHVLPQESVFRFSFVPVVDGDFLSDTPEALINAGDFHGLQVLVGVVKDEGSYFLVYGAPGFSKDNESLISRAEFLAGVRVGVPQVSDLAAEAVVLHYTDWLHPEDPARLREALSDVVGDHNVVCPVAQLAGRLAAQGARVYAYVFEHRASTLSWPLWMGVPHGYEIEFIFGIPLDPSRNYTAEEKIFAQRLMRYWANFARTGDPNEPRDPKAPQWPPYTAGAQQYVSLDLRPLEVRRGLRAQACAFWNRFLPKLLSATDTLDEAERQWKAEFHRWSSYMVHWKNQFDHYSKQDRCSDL
Procedure: as §1, §3, §2

[5] = tested on: MCF-7, human breast carcinoma cell; test: Antiproliferative activity, sulforhodamine-B (SRB) assay, MCF-7; assay type: cell-based; details: read-out: Antiproliferative activity IC50, MCF-7
Procedure: (§4) The SK-OV-3 ovarian cancer cell line, MCF-7 breast cancer line and HCT-116 colon cancer cell line were obtained from the National Cancer Institute, Biological Testing Branch (Frederick, MD, USA), and maintained in the logarithmic phase at 37 °C in a 5% CO2 humidified air in RPMI 1640 medium supplemented with 10% fetal calf serum, 2 mM glutamine, penicillin (100 U/mL) and streptomycin (0.1 mg/mL).
(§5) The growth inhibitory effects of compounds under investigation were compared to those of cisplatin (CDDP) and doxorubicin (DXR), used as positive controls, and evaluated by using the sulforhodamine-B (SRB) assay. Briefly, cells were seeded into 96-well microtiter plates in 100 µL of the appropriate culture medium at plating densities at 2500, 5000 and 8000 cells/well for MCF-7, HCT-116 and SKOV-3, respectively, depending upon the doubling time of individual cell lines. After seeding, microtiter plates were incubated at 37 °C for 24 h before adding the test compounds. After 24 h, several samples of each cell line were fixed in situ with cold trichloroacetic acid (TCA) to represent a measurement of the cell population at the time of compound addition. The test compounds were freshly dissolved in dimethyl sulfoxide (DMSO, 10^−2 M) and gradually diluted to different concentrations (0.79–50 µM) with a complete medium, so that the maximum DMSO/well ratio was 0.5% v/v. After the addition of different compound concentrations to triplicate wells, the plates were further incubated at 37 °C for 72 h. Cells were fixed in situ by the gentle addition of 50 µL of cold 50% w/v TCA (final concentration 10%) and incubated for 1 h at 4 °C. The supernatant was discarded, and the plates were washed with tap water and air-dried. SRB solution (100 µL) at 0.4% (w/v) in 1% acetic acid was added to each well, and the plates were incubated for 30 min at room temperature. After staining, the unbound dye was removed by washing with 1% acetic acid and the plates were air-dried. The bound stain was then solubilized with 10mM Trizma base and the absorbance was read on an automatic plate reader at 570 nm.

[6] = tested on: HCT116, colon cancer cell line; test: Antiproliferative activity, sulforhodamine-B (SRB) assay, HCT116; assay type: cell-based, human; details: 72 h exposure, SRB assay, mean ± S.D., >50 = less than 50% growth inhibition at 50 μM, read-out: Antiproliferative activity IC50, HCT116
Procedure: as §4, §5

[7] = tested on: SK-OV-3, human ovarian carcinoma with intrinsic resistance to cisplatin; test: Antiproliferative activity, sulforhodamine-B (SRB) assay, SK-OV-3; assay type: cell-based; details: read-out: Antiproliferative activity IC50, SK-OV-3
Procedure: as §4, §5

[8] = 72 h exposure, SRB assay, mean ± S.D., >50 = less than 50% growth inhibition at 50 μM

SMILES | inhibition at 10 µM [1] [%] | inhibition at 10 µM [2] [%] | hBChE % inhibition at 10 μM [3] | inhibition at 10 µM [4] [%] | other results
CCOc1cccc2c1O[C@]1(O)CCN(C)C[C@@H]1[C@@H]2O (relative stereo) [7e, (4aR*,10S*,10aR*)-6-Ethoxy-2-methyl-1,2,3,4,10,10a-hexahydro-4aH-chromeno[3,2-c]pyridine-4a,10-diol] | 19 | 25 | n.i. |  | hAChE % inhibition at 10 μM [4]: n.i.
CN1CCc2oc3ccccc3c(=O)c2C1 [1a, 1,2,3,4-tetrahydro-2-methylchromeno[3,2-c]pyridin-10-one] | 15 | 29 | n.i. | 34 | 
CN1CC[C@@]2(O)Oc3ccc(Br)cc3[C@@H](O)[C@@H]2C1 (relative stereo) [8c, (4aR*,10S*,10aS*)-8-Bromo-2-methyl-1,2,3,4,10,10a-hexahydro-4aH-chromeno[3,2-c]pyridine-4a,10-diol] | 14 | 15 | n.i. | 45 | 
O[C@@H]1c2ccccc2O[C@]2(O)CCN(Cc3ccccc3)C[C@@H]12 (relative stereo) [8e, (4aR*,10S*,10aS*)-2-Benzyl-1,2,3,4,10,10a-hexahydro-4aH-chromeno[3,2-c]pyridine-4a,10-diol] | 12 | 41 |  | 25 | inhibition at 10 µM [3]: 19%
CCOc1cccc2c(=O)c3c(oc12)C=CN(C(C)C)C3C#Cc1ccccc1 (centres unmarked) [3d, 6-Ethoxy-2-isopropyl-1-(phenylethynyl)-1,2-dihydro-10H-chromeno[3,2-c]pyridin-10-one] | 36 | 22 |  |  | inhibition at 10 µM [3]: 10%; hAChE % inhibition at 10 μM [4]: n.i.
CN1CC[C@@]2(O)Oc3ccc(Br)cc3[C@@H](O)[C@H]2C1 (relative stereo) [7c, (4aR*,10S*,10aR*)-8-Bromo-2-methyl-1,2,3,4,10,10a-hexahydro-4aH-chromeno[3,2-c]pyridine-4a,10-diol] | 21 | 35 |  |  | inhibition at 10 µM [3]: 12%; hAChE % inhibition at 10 μM [4]: n.i.
CN1CC[C@@]2(O)Oc3ccccc3[C@@H](O)[C@@H]2C1 (relative stereo) [8a, (4aR*,10S*,10aS*)-2-Methyl-1,2,3,4,10,10a-hexahydro-4aH-chromeno[3,2-c]pyridine-4a,10-diol] | 8 | 42 | n.i. | 22 | 
N.N.[Cl][Pt][Cl] [Cisplatin, reference compound] |  |  |  |  | IC50 [5, 8]: 4.8 ± 2.2 µM; IC50 [6]: 5.02 ± 2.12 µM; IC50 [7, 8]: 4.43 ± 0.32 µM
COc1cccc2c1C(=O)c1c(O)c3c(c(O)c1C2=O)C[C@@](O)(C(=O)CO)C[C@@H]3O[C@H]1C[C@H](N)[C@H](O)[C@H](C)O1 [Doxorubicin, doxorubicin, reference compound] |  |  |  |  | IC50 ([5]; Homo sapiens, MCF7, 72 h exposure, SRB assay, mean ± S.D., >50 = less than 50% growth inhibition at 50 μM): 0.18 ± 0.02 µM; IC50 ([6]; Homo sapiens, HCT-116): 0.38 ± 0.03 µM; IC50 ([7]; Homo sapiens, SK-OV-3, 72 h, 72 h exposure, SRB assay, mean ± S.D., >50 = less than 50% growth inhibition at 50 μM): 2.2 ± 0.02 µM
CN1CC[C@@]2(O)Oc3ccccc3[C@@H](O)[C@H]2C1 (relative stereo) [7a, (4aR*,10S*,10aR*)-2-Methyl-1,2,3,4,10,10a-hexahydro-4aH-chromeno[3,2-c]pyridine-4a,10-diol] | 14 | 22 | n.i. | 24 | 
CN1CC=C2Oc3ccc(Cl)cc3C=C2C1 [2a, 8-Chloro-2,3-dihydro-2-methyl-1H-chromeno[3,2-c]pyridine] |  | 45 | n.i. | 25 | IC50 [1]: 1.18 ± 0.07 µM; Selectivity for MAO A over MAO B ([1]; from MAO A and MAO B inhibition data): about tenfold; IC50 ([5]; Homo sapiens, MCF7, 72 h): 48.1 ± 4.21 µM; IC50 ([7]; Homo sapiens, SK-OV-3, 72 h): > 50 µM
CN1C=Cc2oc3ccccc3c(=O)c2C1C#Cc1ccccc1 (centres unmarked) [3a, 2-Methyl-1-(phenylethinyl)-1H-chromeno[3,2-c]pyridine-10(2H)-one] | 35 |  |  |  | MAO B/A selectivity ([2]; from MAO B and MAO A inhibition data): more than twentyfold; IC50 ([2]; hMAO-B IC50, mean ± S.D., determined for compounds with more than 60% inhibition at 10 μM): 0.51 ± 0.021 µM; IC50 ([3]; mean ± S.D., determined for compounds with more than 60% inhibition at 10 μM, read-out: hBChE IC50): 8.42 ± 0.25 µM; IC50 ([4]; mean ± S.D., determined for compounds with more than 60% inhibition at 10 μM, read-out: hAChE IC50): 6.79 ± 0.42 µM
